This is an account of results in patent US4036840A, “2-Substituted-s-triazolo[1,5a]pyrimidines” (ICN Pharmaceuticals, priority 1975, dated 1977).

“Also recorded” adds a separate entry of the source.

For one data set, the system named is anesthetized dog. The note with it: background; cited from earlier work.
Data set [1] relates to phosphodiesterase enzymes. The settings on record: background; cited from earlier work.
The subject of data set [2] is 3',5'-Cyclic AMP phosphodiesterase (PDE) from lung. The data set can be described thus: 3',5'-Cyclic AMP phosphodiesterase (PDE) inhibition, rabbit lung enzyme (Fraction II, low Km). It counts as biochemical. The note with it: relative to theophylline, cAMP about 1.7 × 10^-7 M, 30° C., 10 minutes, pH 7.5.
Data set [3] deals with 3',5'-Cyclic AMP phosphodiesterase (PDE) from kidney. Nature of the data set: 3',5'-Cyclic AMP phosphodiesterase (PDE) inhibition, rabbit kidney enzyme (Fraction II, low Km). It is filed as biochemical. The settings on record: relative to theophylline, cAMP about 1.7 × 10^-7 M, 30° C., 10 minutes, pH 7.5.
The subject of data set [4] is rats. Nature of the data set: Anti-inflammatory test (Winter et al.), foot volume in rats. It counts as in vivo, rat. The settings on record: oral, 100 mg/kg. An excerpt: Following the procedure of C. A. Winter, et al as described in the Proc. Exper.
Data set [5] has as its system isolated guinea pig heart preparation. The data set can be described thus: Coronary dilation in isolated guinea pig heart preparation. The settings on record: 10 μg/ml, preliminary.
The test system of data set [6] is isolated guinea pig uteri. The data set can be described thus: Smooth muscle relaxation of isolated guinea pig uteri. The note with it: 2-10 μg/ml.
The test system of data set [7] is isolated guinea pig heart preparation. The data set can be described thus: Inotropic effect in isolated guinea pig heart preparation. The note with it: 10 μg/ml.
The nature of data set [8]: Solubility noted in the PDE test (Insoluble). It counts as physicochemical. The settings on record: compound not tested for PDE inhibition. The procedure: With respect to the compounds which are indicated in Tables I, II and III as being insoluble, although such compounds have not undergone the inhibitory test of Example XVI, due to the similarity in structure to compounds which were tested, it is expected that in vivo testing of the compounds in forms other than solution will readily indicate phosphodiesterase enzyme inhibitory capability.

In data set [9] the test system is rats. Nature of the data set: Hypotensive activity (Weeks and Jones), mean blood pressure in rats. It counts as in vivo, rat. The note with it: oral. The procedure: Exper. Therap., 104, 646 (1960). At an oral dose of 50 mg/kg in rats, there was a % decrease in mean blood pressure at 1, 3, 6 hours of 11%, 13%, and 24%, respectively.

Turning to `Cc1cc(C)n2ncc(Br)c2n1` [3-bromo-5,7-dimethylpyrazolo[1,5a]pyrimidine], the positive inotropic effect entry in the data set on anesthetized dog is recorded as “positive inotropic effect”. Besides, the “phosphodiesterase inhibition” value in [1] is on record as “significantly more active than theophylline against various phosphodiesterase enzymes”.

For the molecule `Cc1cc(O)n2nc(SCc3ccccc3)nc2n1` [Compound 24, 2-benzylthio-7-hydroxy-5-methyl-s-triazolo[1,5a]pyrimidine], in data set [2], the “PDE Lung; α (I50 theophylline / I50 compound)” value came out at 0.75. The “PDE Kidney; α (I50 theophylline / I50 compound)” value in data set [3] is given as 0.75. For the same molecule, in the data set with rats [4], the “anti-inflammatory activity” value is given as “significant activity” and the “inhibition of foot volume” value is reported as 43%. In addition, the coronary dilation entry in [5] is given as “coronary dialation”. The smooth muscle relaxation result in [6] is given as “smooth muscle relaxants”.

As to `CCN(CC)c1cc(C)nc2nc(SCc3ccccc3)nn12` [Compound 27, 2-benzylthio-7-diethylamino-5-methyl-s-triazole[1,5a]pyrimidine], the “PDE Lung; α (I50 theophylline / I50 compound)” value in data set [2] worked out at 4.20. The “PDE Kidney; α (I50 theophylline / I50 compound)” value in [3] is 2.30. The coronary dilation entry in [5] was “coronary dialation”. Also, the smooth muscle relaxation entry in [6] was “smooth muscle relaxants”.

Turning to `Cc1cc(N(CCO)CCO)n2nc(SCc3ccccc3)nc2n1` [Compound 29, 2-benzylthio-7-[bis(β-hydroxyethyl)amino]-5-methyl-s-triazolo[1,5a]pyrimidine], the positive inotropic effect result in data set [7] is listed as “positive inotropic effect”. Moreover, the “PDE Lung; α (I50 theophylline / I50 compound)” value in data set [2] is 2.10. Also, the “PDE Kidney; α (I50 theophylline / I50 compound)” value in [3] is listed as 2.30. For the same molecule, in data set [5], the coronary dilation result was “coronary dialation”. Moreover, the smooth muscle relaxation entry in [6] is “smooth muscle relaxants”.

Turning to `Cc1cc(NN)n2nc(SCc3ccccc3)nc2n1` [Compound 32, 2-benzylthio-7-hydrazino-5-methyl-s-triazolo[1,5a]pyrimidine], in data set [8], the “Solubility” value is “Insoluble”. Also, the “hypotensive activity” value in the data set on rats [9] (25 mg/kg) and with rats [9] (50 mg/kg) was “significant hypotensive activity” in each case. Further, the “% decrease in mean blood pressure at 1 hour” value with rats [9] (50 mg/kg, 1 hour) came to 11%. The “% decrease in mean blood pressure at 3 hours” value in the data set with rats [9] (50 mg/kg, 3 hours) was 13%. For the same molecule, in the data set on rats [9] (50 mg/kg, 6 hours), the “% decrease in mean blood pressure at 6 hours” value is recorded as 24%.

As for `CCCNc1c(C(=O)OCC)cnc2nc(SCc3ccccc3)nn12` [Compound 39, 2-benzylthio-6-carbethoxy-7-n-propylamino-s-triazolo[1,5a]pyrimidine], in data set [2], the “PDE Lung; α (I50 theophylline / I50 compound)” value came out at 21.0. In addition, in data set [3], the “PDE Kidney; α (I50 theophylline / I50 compound)” value was determined as 7.0. Also, the coronary dilation result in [5] was “coronary dialation”.

For the molecule `Cn1c(=O)c2[nH]cnc2n(C)c1=O` [Theophylline], the “phosphodiesterase inhibition” value in data set [1] is given as “does not selectively inhibit phosphodiesterase; also recorded: not as potent as a phosphodiesterase inhibitor as is desired”.
